From patent publication US11440923B2, “Substituted macrocyclic indole derivatives” (Bayer Aktiengesellschaft, priority 2017, dated 2022)
Structures can show the parent of a compound that is named as a salt. Where two headings read alike, the source gives them in different places.

Columns and labels:
SUDHL5 cells = test: Induction of cytotoxicity in SUDHL5 cells (Assay 6); assay type: cell-based; conditions: 5 h, CellTiter-Glo, read-out: Cytotox SUDHL5 IC50 (median)
Summary of the method: (§1)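 Following overnight seeding at 37 °C, cells are treated with compound for 5 h, after which CellTiter-Glo reagent is added and luminescence measured following a 15 min room-temperature shake.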

SUDHL10 cells = test: Induction of cytotoxicity in SUDHL10 cells (Assay 6); assay type: cell-based; conditions: 5 h, CellTiter-Glo, read-out: Cytotox SUDHL10 IC50 (median)
Summary of the method: as §1

BCL-2 = BCL-2 (Homo sapiens (Human), UniProt P10415); test: Protein-protein interaction assay BCL-2/Bad BH3 peptide (BCL-2 assay, TR-FRET); assay type: binding; conditions: read-out: BCL-2 Assay IC50 (median)
Summary of the method: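 His-tagged BCL-2 (aa 1-211, E. coli, 1 nM) preincubated 10 min at 22° C with compound (0.1 nM-20 μM), then 1 nM biotinylated Bad BH3 peptide with anti-His-Eu/streptavidin-XL665 added. Buffer: 50 mM Tris pH 7, 100 mM NaCl, 50 mM KF, 2 mM DTT. Incubated 1 h at 22° C, then overnight at 4° C. 665/620 ratio normalized; IC50 by 4-parameter fit.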

Sequence of BCL-2 (P10415 1-211): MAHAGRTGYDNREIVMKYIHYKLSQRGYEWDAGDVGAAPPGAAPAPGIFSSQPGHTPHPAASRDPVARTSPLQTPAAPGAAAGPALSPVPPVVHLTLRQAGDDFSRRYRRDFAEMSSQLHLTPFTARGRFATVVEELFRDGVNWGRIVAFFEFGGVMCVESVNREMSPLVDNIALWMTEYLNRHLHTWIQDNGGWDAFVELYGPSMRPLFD

Row | Compound | IC50 (SUDHL5 cells; Homo sapiens, SU-DHL-5, 5 h) [nM] | IC50 (SUDHL10 cells; Homo sapiens, SU-DHL10, 5 h) [nM] | IC50 (BCL-2) [µM] | IC50 (SUDHL5 cells) [nM] | IC50 (SUDHL10 cells) [nM]
1 | CCc1c2c(nn1C)C(CCOC)OCCCCn1c(C(=O)O)c(CCCOc3cccc4cc(F)ccc34)c3ccc(Cl)c-2c31 (racemic) [Example 41, (rac)-4-chloro-3-ethyl-7-{3-[(6-fluoronaphthalen-1-yl)oxy]propyl}-(15-rac)-(2-methoxyethyl)-2-methyl-2,10,11,12,13,15-hexahydropyrazolo[4′,3′:9,10][1,6]oxazacycloundecino[8,7,6-hi]indole-8-carboxylic Acid] | 170 | 160 | 18.1 |  | 
2 | Cc1c2c(nn1C)C(CCN1CCOCC1)OCCCCn1c(C(=O)O)c(CCCOc3cccc4cc(F)ccc34)c3ccc(F)c-2c31 (single isomer, unassigned; enantiomer 2) [Example 21, 4-fluoro-7-{3-[(6-fluoronaphthalen-1-yl)oxy]propyl}-2,3-dimethyl-15-[2-(morpholin-4-yl)ethyl]-2,10,11,12,13,15-hexahydropyrazolo[4′,3′:9,10][1,6]oxazacycloundecino[8,7,6-hi]indole-8-carboxylic Acid (Enantiomer 2)] | 12000 | 14000 | > 20 |  | 
3 | Cc1c2c(nn1C)C(CCO)OCCCCn1c(C(=O)O)c(CCCOc3cccc4ccccc34)c3ccc(Cl)c-2c31 (racemic) [Example 26, (rac)-4-chloro-15-(2-hydroxyethyl)-2,3-dimethyl-7-{3-[(naphthalen-1-yl)oxy]propyl}-2,10,11,12,13,15-hexahydropyrazolo[4′,3′:9,10][1,6]oxazacycloundecino[8,7,6-hi]indole-8-carboxylic Acid] | 400 | 870 | > 20 |  | 
4 | COCCC1OCCCCn2c(C(=O)O)c(CCCOc3cccc4ccccc34)c3ccc(Cl)c(c32)-c2c1nn(C)c2C (racemic) [Example 37, (rac)-4-chloro-(15-rac)-(2-methoxyethyl)-2,3-dimethyl-7-{3-[(naphthalen-1-yl)oxy]propyl}-2,10,11,12,13,15-hexahydropyrazolo[4′,3′:9,10][1,6]oxazacycloundecino[8,7,6-hi]indole-8-carboxylic Acid] | 390 | 360 | > 20 |  | 
5 | CCc1c2c(nn1C)C(CCOC)OCCCCn1c(C(=O)O)c(CCCOc3cccc4cc(F)ccc34)c3ccc(Cl)c-2c31 (single isomer, unassigned; enantiomer 2) [Example 43, (−)-4-chloro-3-ethyl-7-{3-[(6-fluoronaphthalen-1-yl)oxy]propyl}-15-(2-methoxyethyl)-2-methyl-2,10,11,12,13,15-hexahydropyrazolo[4′,3′:9,10][1,6]oxazacycloundecino[8,7,6-hi]indole-8-carboxylic Acid—N-ethylethanamine Salt (Enantiomer 2)] |  |  | 19.3 | 18000 | 19000
6 | Cc1c2c(nn1C)C(CCN1CCOCC1)OCCCCn1c(C(=O)O)c(CCCOc3cccc4cc(F)ccc34)c3ccc(Cl)c-2c31 (racemic) [Example 16, (rac)-4-chloro-7-{3-[(6-fluoronaphthalen-1-yl)oxy]propyl}-2,3-dimethyl-15-[2-(morpholin-4-yl)ethyl]-2,10,11,12,13,15-hexahydropyrazolo[4′,3′:9,10][1,6]oxazacycloundecino[8,7,6-hi]indole-8-carboxylic Acid] | 19 | 22 | > 20 |  | 
7 | CCc1c2c(nn1C)C(CCN1CCOCC1)OCCCCn1c(C(=O)O)c(CCCOc3cccc4cc(F)ccc34)c3ccc(F)c-2c31 (racemic) [Example 49, (rac)-3-Ethyl-4-fluoro-7-{3-[(6-fluoronaphthalen-1-yl)oxy]propyl}-2-methyl-(15-rac)-[2-(morpholin-4-yl)ethyl]-2,10,11,12,13,15-hexahydropyrazolo[4′,3′:9,10][1,6]oxazacycloundecino[8,7,6-hi]indole-8-carboxylic Acid] | 34 | 33 | > 20 |  | 
8 | CCc1c2c(nn1C)C(CCC1CCOCC1)OCCCCn1c(C(=O)O)c(CCCOc3cccc4cc(F)ccc34)c3ccc(Cl)c-2c31 (single isomer, unassigned; enantiomer 2) [Example 62, (−)-4-chloro-3-ethyl-7-{3-[(6-fluoronaphthalen-1-yl)oxy]propyl}-2-methyl-15-[2-(oxan-4-yl)ethyl]-2,10,11,12,13,15-hexahydropyrazolo[4′,3′:9,10][1,6]oxazacycloundecino[8,7,6-hi]indole-8-carboxylic Acid (Enantiomer 2)] |  |  | > 20 | 6300 | 7800
9 | Cc1c2c(nn1C)C(CCN1CCOCC1)OCCCCn1c(C(=O)O)c(CCCOc3cccc4cc(F)ccc34)c3ccc(Cl)c-2c31 (single isomer, unassigned; enantiomer 1) [Example 17, 4-chloro-7-{3-[(6-fluoronaphthalen-1-yl)oxy]propyl}-2,3-dimethyl-15-[2-(morpholin-4-yl)ethyl]-2,10,11,12,13,15-hexahydropyrazolo[4′,3′:9,10][1,6]oxazacycloundecino[8,7,6-hi]indole-8-carboxylic Acid—N-ethylethanamine (Enantiomer 1)] | 11 | 9.3 | > 20 |  | 
10 | CCC1OCCCCn2c(C(=O)O)c(CCCOc3cccc4ccccc34)c3ccc(Cl)c(c32)-c2c1nn(C)c2C (single isomer, unassigned; enantiomer 2) [Example 30, (−)-4-chloro-15-ethyl-2,3-dimethyl-7-{3-[(naphthalen-1-yl)oxy]propyl}-2,10,11,12,13,15-hexahydropyrazolo[4′,3′:9,10][1,6]oxazacycloundecino[8,7,6-hi]indole-8-carboxylic Acid—N-ethylethanamine Salt (Enantiomer 2)] |  |  | > 20 | 29000 | > 33000
11 | CCc1c2c(nn1C)C(CCN1CCC(F)(F)C1)OCCCCn1c(C(=O)O)c(CCCOc3cccc4cc(F)ccc34)c3ccc(Cl)c-2c31 (single isomer, unassigned; enantiomer 1) [Example 56, 4-chloro-15-[2-(3,3-difluoropyrrolidin-1-yl)ethyl]-3-ethyl-7-{3-[(6-fluoronaphthalen-1-yl)oxy]propyl}-2-methyl-2,10,11,12,13,15-hexahydropyrazolo[4′,3′:9,10][1,6]oxazacycloundecino[8,7,6-hi]indole-8-carboxylic Acid—N-ethylethanamine Salt (Enantiomer 1)] |  |  | > 20 | 21 | 39
12 | Cc1c2c(nn1C)C(C1CC1)OCCCCn1c(C(=O)O)c(CCCOc3cccc4ccccc34)c3ccc(Cl)c-2c31 (single isomer, unassigned; enantiomer 1) [Example 35, (+)-4-chloro-15-cyclopropyl-2,3-dimethyl-7-{3-[(naphthalen-1-yl)oxy]propyl}-2,10,11,12,13,15-hexahydropyrazolo[4′,3′:9,10][1,6]oxazacycloundecino[8,7,6-hi]indole-8-carboxylic Acid N-ethylethanamine Salt (Enantiomer 1)] |  |  | > 20 | 2000 | 6700
13 | Cc1c2c(nn1C)C(C)OCCCCn1c(C(=O)O)c(CCCOc3cccc4ccccc34)c3cccc-2c31 (racemic) [Example 1, (rac)-2,3,15-trimethyl-7-[3-(naphthalen-1-yloxy)propyl]-2,10,11,12,13,15-hexahydropyrazolo[4′,3′:9,10][1,6]oxazacycloundecino[8,7,6-hi]indole-8-carboxylic Acid (Mixture of Stereoisomers)] | 2800 | 6600 | > 20 |  | 
14 | CCc1c2c(nn1C)C(CCC(C)(C)O)OCCCCn1c(C(=O)O)c(CCCOc3cccc4cc(F)ccc34)c3ccc(Cl)c-2c31 (racemic) [Example 74, (rac)-4-chloro-3-ethyl-7-{3-[(6-fluoronaphthalen-1-yl)oxy]propyl}-(15-rac)-(3-hydroxy-3-methylbutyl)-2-methyl-2,10,11,12,13,15-hexahydropyrazolo[4′,3′:9,10][1,6]oxazacycloundecino[8,7,6-hi]indole-8-carboxylic Acid] | 51 | 55 | 19.6 |  | 
15 | Cc1c2c(nn1C)C(CCN1CCOCC1)OCCCCn1c(C(=O)O)c(CCCOc3cccc4ccccc34)c3ccc(F)c-2c31 (single isomer, unassigned; enantiomer 2) [Example 9, 4-fluoro-2,3-dimethyl-15-[2-(morpholin-4-yl)ethyl]-7-{3-[(naphthalen-1-yl)oxy]propyl}-2,10,11,12,13,15-hexahydropyrazolo[4′,3′:9,10][1,6]oxazacycloundecino[8,7,6-hi]indole-8-carboxylic Acid—N-ethylethanamine Salt (Enantiomer 2)] |  |  | > 20 | 5400 | 16000
16 | Cc1c2c(nn1C)C(CCN1CCOCC1)OCCCCn1c(C(=O)O)c(CCCOc3cccc4ccccc34)c3ccc(Cl)c-2c31 (racemic) [Example 13, (rac)-4-chloro-2,3-dimethyl-15-[2-(morpholin-4-yl)ethyl]-7-{3-[(naphthalen-1-yl)oxy]propyl}-2,10,11,12,13,15-hexahydropyrazolo[4′,3′:9,10][1,6]oxazacycloundecino[8,7,6-hi]indole-8-carboxylic Acid] | 89 | 210 | > 20 |  | 
